In the test the test system is Sertoli cells. The test is described as follows: Inhibition of in vitro Sertoli cell ablation with BC by cell death pathway inhibitors. To be noted: 30 min inhibitor pre-treatment, 10 min BC, culture with inhibitor 4 days, neonatal testis. It is filed as cell-based, mouse. On the procedure:
Fragments of the mouse testis were incubated with 0.02% BC for 10 min. After washing several times with PBS, tissues were placed atop 1.5% agarose blocks (214530; Difco), prepared and placed in 6 well tissue culture plates (353046; Falcon) with ˜500 μl of 10% FBS+DMEM (11995-065; Gibco) to reach halfway up the side of the block. After culture, tissues were washed in PBS and fixed for immunofluorescence. The dog testis tissues were incubated with 0.02% or 0.03% BC for 10 min and cultured with 10% KnockOut Serum Replacement (KSR) (Invitrogen; 10828-028)+DMEM (Yokonishi, T., et al. Methods in Molecular Biology 927: 479-488 (2013)). The culture incubator was supplied with 5% (vol/vol) carbon dioxide in air and maintained at 37° C. Q-VD (OMe)-OPh (A8165; ApexBio), Necrostatin-1, Spautin-1 (Sigma; SML0440), 3-Methyladenine (Cayman; CAS 5142-23-4), LY294002 (Cayman; CAS 154447-36-6), Bafilomycin A1 (Cayman; CAS88899-55-2) were used as cell death inhibitors. Next, we investigated the Sertoli cell death pathway caused by BC treatment. Testes from neonatal pups were pre-treated with 1% DMSO (as a control) or with cell death pathway inhibitors, pan-caspase inhibitor, 2,6-difluorophenoxymethylketone-based inhibitor (Q-VD-OPH), necrosis inhibitor (Necrostatin-1) and autophagy inhibitors, Spautin-1, LY294002, or Bafilomycin A1, for 30 min. Pre-treatments were followed by a 10 min BC treatment, washing, and culture in the presence of the inhibitor for 4 days (FIG. 3).
With `Cn1cnc(N)c2ncnc1-2` [3MA, 3-Methyladenine], the “rescue of Sertoli cells after BC treatment” value is on record as “partially rescued Sertoli cells”. Under `CO/C1=C\C(C)=C\[C@@H](C)[C@@H](O)[C@@H](C)C/C(C)=C/C=C/[C@H](OC)[C@@H]([C@@H](C)[C@@H](O)[C@H](C)[C@@]2(O)C[C@@H](O)[C@H](C)[C@@H](C(C)C)O2)OC1=O` [Bafilomycin A1] stands “partially rescued Sertoli cells”; under `CN1C(=O)C(Cc2c[nH]c3ccccc23)NC1=S` (centres unmarked) [Necrostatin-1], “did not rescue Sertoli cells”; under `COC(=O)C[C@H](NC(=O)[C@@H](NC(=O)c1ccc2ccccc2n1)C(C)C)C(=O)COc1c(F)cccc1F` [Q-VD-OPH], “did not rescue Sertoli cells”. With `Fc1ccc(CNc2ncnc3ccc(F)cc23)cc1` [Spautin-1], the “rescue of Sertoli cells after BC treatment” value is recorded as “partially rescued Sertoli cells”.

The values are drawn from patent publication US11523995B2, “Compositions and methods for ablating niche cells in testis and other epithelial cells and methods relating thereto” (Duke University, priority 2017, dated 2022).
